Results: patent US6608086B2, “Dihydropyridines and new uses thereof” (Synaptic Pharmaceutical Corporation, priority 1993, dated 2003)
Where a name gives a salt, the structure may show the parent alone. Read-outs that look alike come from different tables or passages of the source.

Experiments:
[1] = molecular target: T1, α1B Human Adrenergic Receptor (Homo sapiens, UniProt P35368); assay: Radioligand binding, [3H]prazosin, cloned human α1B adrenergic receptor
T1 construct: The entire coding region of α1B (1563 bp); expressed in transfected cells
T1 sequence (P35368 1-520): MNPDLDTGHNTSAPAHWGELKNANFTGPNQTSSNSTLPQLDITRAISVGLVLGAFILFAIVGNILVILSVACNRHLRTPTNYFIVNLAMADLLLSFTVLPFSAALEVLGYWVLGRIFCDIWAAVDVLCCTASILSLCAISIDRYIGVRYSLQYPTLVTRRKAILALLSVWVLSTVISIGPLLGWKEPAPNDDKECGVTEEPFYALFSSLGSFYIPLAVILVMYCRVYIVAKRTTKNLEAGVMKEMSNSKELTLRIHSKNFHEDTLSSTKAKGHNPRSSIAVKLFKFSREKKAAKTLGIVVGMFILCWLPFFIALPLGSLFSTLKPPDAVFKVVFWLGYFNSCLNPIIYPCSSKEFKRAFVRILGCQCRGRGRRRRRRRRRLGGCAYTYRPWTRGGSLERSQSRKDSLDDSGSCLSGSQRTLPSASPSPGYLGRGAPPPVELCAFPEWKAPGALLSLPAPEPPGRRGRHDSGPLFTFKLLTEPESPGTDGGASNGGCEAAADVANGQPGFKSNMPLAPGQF
Summary of the method: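 [3H]prazosin (0.5 nM) binding was run for 20 min at 37° C in pH 7.5 Tris/MgCl2/ascorbate buffer on membranes of LM(tk−) cells stably expressing the cloned receptor. Filtration through GF/B ended the reaction; 10 μM phentolamine gave nonspecific binding.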

[2] = molecular target: T2, α1C Human Adrenergic Receptor (Homo sapiens, UniProt P35348); assay: Radioligand binding, [3H]prazosin, cloned human α1C adrenergic receptor
T2 construct: The entire coding region of α1C (1401 bp); expressed in transfected cells
T2 sequence (P35348 1-466): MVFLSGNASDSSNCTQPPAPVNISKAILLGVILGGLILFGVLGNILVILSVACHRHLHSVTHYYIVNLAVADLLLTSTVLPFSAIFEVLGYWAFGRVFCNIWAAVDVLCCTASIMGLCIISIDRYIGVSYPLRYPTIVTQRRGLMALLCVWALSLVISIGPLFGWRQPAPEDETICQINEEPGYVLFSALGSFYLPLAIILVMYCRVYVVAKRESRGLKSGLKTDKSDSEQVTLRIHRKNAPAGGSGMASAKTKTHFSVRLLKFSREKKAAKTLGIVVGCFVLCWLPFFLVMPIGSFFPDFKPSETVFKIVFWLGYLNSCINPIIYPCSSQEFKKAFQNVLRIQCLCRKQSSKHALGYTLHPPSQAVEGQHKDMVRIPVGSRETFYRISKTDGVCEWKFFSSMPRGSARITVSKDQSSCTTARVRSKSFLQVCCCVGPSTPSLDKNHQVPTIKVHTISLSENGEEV
Summary of the method: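 Read-out is filter-retained [3H]prazosin (0.5 nM) bound to membranes of LM(tk−) cells stably carrying the human α1C receptor. Incubation ran 20 min at 37° C. at pH 7.5, with 10 μM phentolamine marking nonspecific binding.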

α2B receptor = molecular target: T3, α2B receptor (Homo sapiens, UniProt P18089); assay: Competition binding, [3H]rauwolscine, human α2B receptor
T3 construct: host or cells: LM(tk-) cells, line L-NGC-α2B
T3 sequence (P18089 1-450): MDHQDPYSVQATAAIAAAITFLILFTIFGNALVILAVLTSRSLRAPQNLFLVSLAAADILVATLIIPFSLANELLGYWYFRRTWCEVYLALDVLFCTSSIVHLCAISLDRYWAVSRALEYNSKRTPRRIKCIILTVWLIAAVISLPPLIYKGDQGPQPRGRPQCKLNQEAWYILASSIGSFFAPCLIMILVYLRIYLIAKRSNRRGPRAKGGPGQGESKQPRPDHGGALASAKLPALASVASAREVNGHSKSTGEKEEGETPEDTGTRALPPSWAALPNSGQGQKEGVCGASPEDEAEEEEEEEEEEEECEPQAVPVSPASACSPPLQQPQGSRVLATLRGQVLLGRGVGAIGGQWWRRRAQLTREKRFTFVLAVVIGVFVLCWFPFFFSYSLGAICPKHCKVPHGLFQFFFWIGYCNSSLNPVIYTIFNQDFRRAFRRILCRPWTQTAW
Summary of the method: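 Cell lysates from stably transfected LM(tk−) lines are resuspended in 25 mM glycylglycine (pH 7.6 at room temperature), incubated to equilibrium with 0.5 nM [3H]rauwolscine plus competitor, then filtered through GF/B filters; 10 μM phentolamine defines nonspecific binding.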

[3] = cloned human receptor in LM(tk-) cell membranes, SEM and n in lines below, read-out: pKi alpha-1 1b (converted)
[4] = cloned human receptor in LM(tk-) cell membranes, SEM and n in lines below, read-out: pKi alpha-1 1c (converted)
[5] = [3H]rauwolscine, LM(tk-) cell line L-NGC-α2B, SEM and n in lines below, read-out: pKi alpha-2 2b (converted)
[6] = cloned human α1C receptor, LM(tk-) cell membranes, read-out: PKi alpha-1 1c (converted)
[7] = cloned human receptor, LM(tk-) cell membranes, mean
[8] = cloned human α1B receptor, LM(tk-) cell membranes, read-out: PKi alpha-1 1b (converted)

`COC(=O)C1=C(C)NC(C)=C(C(=O)NCCCCN2CCC(c3ccccc3)CC2)C1c1ccc([N+](=O)[O-])cc1` (stereo not drawn) [Example 3, 1,4-Dihydro-3-methoxycarbonyl-2,6-dimethyl-4-(4-nitrophenyl)-5-{N-[4-(4-phenylpiperidin-1-yl)butyl]}carbozamidopyridine hydrochloride hydrate] was tested. Which Ki [1, 3] did it give?
The Ki was 0.0646 µM.

And the Ki [2, 4]?
Its Ki is 0.00589 µM.

And the Ki (α2B receptor; [5])?
The Ki was 0.0224 µM.

With `COC(=O)C1=C(C)NC(C)=C(C(=O)NCCCN2CCC(c3ccccc3)(c3ccccc3)CC2)C1c1cccc([N+](=O)[O-])c1` (stereo not drawn) [Example 249, 1,4-Dihydro-3-methoxycarbonyl-2,6-dimethyl-4-(3-nitrophenyl)-5-(N-(3-(4,4-diphenylpiperidin-1-yl)propyl)carboxamido)-pyridine] as the molecule, how does the “PKi alpha-1 1b” value ([1]; cloned human α1B receptor, LM(tk-) cell membranes) read?
Its value is 6.63.

What about the Ki [2, 6] of the same molecule?
Its Ki is 0.000389 µM.

And the “PKi alpha-2 2b” value (α2B receptor)?
The value was 5.91.

Which results are given for `COC(=O)C1=C(C)NC(C)=C(C(=O)NCCCN2CCC(c3ccccc3)CC2)C1c1ccc([N+](=O)[O-])cc1` (racemic) [(±)-45, (±)-1,4-Dihydro-3-methoxycarbonyl-2,6-dimethyl-4-(4-nitrophenyl)-5-{N-[3-(4-phenylpiperidin-1-yl)propyl]}carboxamidopyridine hydrochloride hemihydrate]?
Ki [1, 3]: 0.0135 µM; Ki [2, 4]: 0.000234 µM; Ki (α2B receptor; [5]): 0.214 µM

Which Ki ([1]; PKi alpha-1 1b, cloned human receptor, LM(tk-) cell membranes, mean) does the source give for `CC(=O)C1=C(C)NC(COCCN)=C(C(=O)NCCCN2CCC(c3ccccc3)(c3ccccc3)CC2)C1c1ccc([N+](=O)[O-])cc1` (stereo not drawn) [Example 237, 5-Acetyl-2-((2-aminoethyl)oxy)methyl-1,4-dihydro-6-methyl-4-(4-nitro)phenyl 3-(N-(3-(4,4-diphenylpiperidin-1-yl)propyl)) carboxamidopyridine] here?
The Ki was 0.2 µM.

And the Ki ([2]; PKi alpha-1 1c, cloned human receptor, LM(tk-) cell membranes, mean)?
The Ki was 0.00263 µM.

What about the Ki (α2B receptor; PKi alpha-2 2b, [3H]rauwolscine, human receptor, LM(tk-) cell lysates, mean) of the same molecule?
Its Ki is 0.851 µM.

With `CC1=C(C(N)=O)C(c2ccc([N+](=O)[O-])cc2)C(C(=O)NCCCN2CCC(C(=O)OCCC#N)(c3ccccc3)CC2)=CN1C` (stereo not drawn) [Example 209, 5-Carboxamido-3-{N-[3-(4-(2-cyanoethoxycarbonyl)-4-phenylpiperidin-1-yl)propyl]}carboxamido-1,4-dihydro-1,6-dimethyl-4-(4-nitrophenyl) pyridine] as the molecule, how does the “PKi alpha-1 1b” value [1, 7] read?
Its value is 5.44.

And the “PKi alpha-1 1c” value [2, 7]?
Its value is 8.41.

And the “PKi alpha-2 2b” value (α2B receptor; [3H]rauwolscine, human receptor, LM(tk-) cell lysates, mean)?
The value was 6.46.

With `CCOC(=O)C1(c2ccccc2)CCN(CCCNC(=O)C2=C(COCCN)NC(C)=C(C(C)=O)C2c2ccc3c(c2)OCO3)CC1` (stereo not drawn) [Example 244, 5-Acetyl-2-((2-aminoethyl)oxy)methyl-3-(N-(3-(4-ethoxycarbonyl-4-phenylpiperidin-1-yl)propyl)) carboxamido-1,4-dihydro-6-methyl-4-(3,4-methylenedioxy) phenylpyridine] as the molecule, how does the Ki [1, 8] read?
The Ki was 0.513 µM.

And the Ki [2, 6]?
The Ki was 0.00347 µM.

What about the Ki (α2B receptor; [3H]rauwolscine, human α2B receptor, LM(tk-) cells, read-out: PKi alpha-2 2b (converted)) of the same molecule?
The Ki was 2.14 µM.

How did the Ki [1, 8] turn out when `COC(=O)C1(c2ccccc2)CCN(CCCNC(=O)C2=C(COCCCN)NC(C)=C(C(C)=O)C2c2ccc([N+](=O)[O-])cc2)CC1` (stereo not drawn) [Example 241, 5-Acetyl-2-((3-aminopropyl)oxy)methyl-1,4-dihydro-3-(N-(3-(4-methoxycarbonyl-4-phenylpiperidin-1-yl)propyl))carboxamido-6-methyl-4-(4-nitro)phenylpyridine] was run?
The Ki was 0.49 µM.

What about the Ki [2, 6] of the same molecule?
The Ki was 0.00437 µM.

What about the Ki (α2B receptor; PKi alpha-2 2b) of the same molecule?
Its Ki is 1.17 µM.

For `CCC1=C(C(=O)NC)C(c2ccc([N+](=O)[O-])cc2)C(C(=O)NCCCN2CCC(c3ccccc3)(c3ccccc3)CC2)=C(COCCN)N1` (stereo not drawn) [Example 225, 2-((2-Aminoethyl)oxy)methyl-6-ethyl-1,4-dihydro-5-N-methylcarboxamido-4-(4-nitro)phenyl-3-(3-(N-(4,4-diphenylpiperidin-1-yl)propyl))carboxamidopyridine], which Ki ([1]; cloned human receptor, LM(tk-) cell membranes, mean, read-out: PKi alpha-1 1b (converted)) is on record?
Its Ki is 0.501 µM.

And the Ki ([2]; cloned human receptor, LM(tk-) cell membranes, mean, read-out: PKi alpha-1 1c (converted))?
The Ki was 0.00398 µM.

And the Ki (α2B receptor; PKi alpha-2 2b)?
Its Ki is 2.51 µM.

`COC(=O)C1=C(C)NC(C)=C(C(=O)OCCCN2CCCCC2)C1c1ccc([N+](=O)[O-])cc1` (stereo not drawn) [Example 50, 1,4-Dihydro-5-methoxycarbonyl-2,6-dimethyl-4-(4-nitrophenyl)-3-[3-(piperidin-1-yl)propoxy]carbonylpyridine hydrochloride etherate] was tested. Which Ki [1, 3] did it give?
The Ki was 3.02 µM.

And the Ki [2, 4]?
The Ki was 0.0851 µM.

And the Ki (α2B receptor; [5])?
Its Ki is 2.75 µM.
